# From paper PMC12217109, “Development of novel benzamide class I selective lysine deacetylase inhibitors as potent anticancer agents” (Journal of Enzyme Inhibition and Medicinal Chemistry, 2025)
# How the values were obtained:
# T-47D = assay: NCI-60 cytotoxicity screen; assay type: cell-based, human; settings: Homo sapiens, T47D; NCI-60, 48 h, breast
# HeLa nuclear KDACs = assay: Fluor-de-Lys HDAC fluorometric activity assay with HeLa nuclear extract; assay type: biochemical
# Description: Total zinc-dependent KDAC (classes I, II and IV) activity was measured using the Fluor-de-Lys^TM HDAC fluorometric activity assay kit (BioMol, Exeter, UK), as per manufacturers protocol. Briefly, HeLa nuclear extract, potential inhibitor (5 nM–20 μM) and assay buffer were incubated in a 96-well fluorometric plate at 37 °C for 15 min. Acetylated substrate (100 μM) was added and the mixture incubated at 37 °C for a further 20 min. The developer was added and the mixture incubated at 37 °C for a further 15 min. Fluorescence was measured using a microplate reader (λex = 360 nm, λem = 460 nm). Percentage KDAC activity and thus KDAC inhibition was determined by quantification of fluorescence obtained in the presence versus absence of the respective inhibitor.
# OVCAR-5 = assay: NCI-60 cytotoxicity screen; assay type: cell-based; settings: Homo sapiens, NCI-60, 48 h, ovarian
# KM12 = assay: NCI-60 cytotoxicity screen; assay type: cell-based; settings: Homo sapiens, NCI-60, 48 h, colon
# Excerpt: (§1) Compounds 3–7 were submitted to the US National Cancer Institute (NIH, Bethesda, Maryland) for screening against the NCI-60 panel of human cancer cell lines, as per standard protocol.
# OVCAR-8 = assay: NCI-60 cytotoxicity screen; assay type: cell-based; settings: Homo sapiens, NCI-60, 48 h, ovarian
# Excerpt: as §1
# EKVX = assay: NCI-60 cytotoxicity screen; assay type: cell-based; settings: Homo sapiens, NCI-60, 48 h, NSCLC
# Excerpt: as §1
# SK-MEL-2 = assay: NCI-60 cytotoxicity screen; assay type: cell-based; settings: Homo sapiens, NCI-60, 48 h, melanoma
# Excerpt: as §1
# RPMI-8226 = assay: NCI-60 cytotoxicity screen; assay type: cell-based; settings: Homo sapiens, NCI-60, 48 h, leukaemia
# Excerpt: as §1
# HCT15 = assay: NCI-60 cytotoxicity screen; assay type: cell-based; settings: Homo sapiens, HCT-15; NCI-60, 48 h, colon
# Excerpt: as §1
# SNB-75 = assay: NCI-60 cytotoxicity screen; assay type: cell-based; settings: Homo sapiens, NCI-60, 48 h, CNS
# Excerpt: as §1
# H460 = assay: NCI-60 cytotoxicity screen; assay type: cell-based; settings: Homo sapiens, NCI-60, 48 h, NSCLC
# Excerpt: as §1
# SR = assay: NCI-60 cytotoxicity screen; assay type: cell-based; settings: Homo sapiens, NCI-60, 48 h, leukaemia
# Excerpt: as §1
# RXF 393 = assay: NCI-60 cytotoxicity screen; assay type: cell-based; settings: Homo sapiens, NCI-60, 48 h, renal
# Excerpt: as §1
# H23 = assay: NCI-60 cytotoxicity screen; assay type: cell-based; settings: Homo sapiens, NCI-60, 48 h, NSCLC
# Excerpt: as §1
# NCI/ADR-RES = assay: NCI-60 cytotoxicity screen; assay type: cell-based; settings: Homo sapiens, NCI-60, 48 h, ovarian
# Excerpt: as §1
# H522 = assay: NCI-60 cytotoxicity screen; assay type: cell-based; settings: Homo sapiens, NCI-60, 48 h, NSCLC
# Excerpt: as §1
# SF-539 = assay: NCI-60 cytotoxicity screen; assay type: cell-based; settings: Homo sapiens, NCI-60, 48 h, CNS
# Excerpt: as §1
# MDA-MB-435 = assay: NCI-60 cytotoxicity screen; assay type: cell-based; settings: Homo sapiens, NCI-60, 48 h, melanoma
# Excerpt: as §1
# DU-145 = assay: NCI-60 cytotoxicity screen; assay type: cell-based; settings: Homo sapiens, NCI-60, 48 h, prostate
# Excerpt: as §1
# OVCAR-4 = assay: NCI-60 cytotoxicity screen; assay type: cell-based; settings: Homo sapiens, NCI-60, 48 h, ovarian
# Excerpt: as §1
# U251 = assay: NCI-60 cytotoxicity screen; assay type: cell-based; settings: Homo sapiens, U-251; NCI-60, 48 h, CNS
# Excerpt: as §1
# LOX IMVI = assay: NCI-60 cytotoxicity screen; assay type: cell-based; settings: Homo sapiens, NCI-60, 48 h, melanoma
# Excerpt: as §1
# CAKI-1 = assay: NCI-60 cytotoxicity screen; assay type: cell-based; settings: Homo sapiens, NCI-60, 48 h, renal
# Excerpt: as §1
# SF-268 = assay: NCI-60 cytotoxicity screen; assay type: cell-based; settings: Homo sapiens, NCI-60, 48 h, CNS
# Excerpt: as §1
# UO-31 = assay: NCI-60 cytotoxicity screen; assay type: cell-based; settings: Homo sapiens, NCI-60, 48 h, renal
# Excerpt: as §1
# SNB-19 = assay: NCI-60 cytotoxicity screen; assay type: cell-based; settings: Homo sapiens, NCI-60, 48 h, CNS
# Excerpt: as §1
# SW620 = assay: NCI-60 cytotoxicity screen; assay type: cell-based; settings: Homo sapiens, SW-620; NCI-60, 48 h, colon
# Excerpt: as §1
# SK-MEL-5 = assay: NCI-60 cytotoxicity screen; assay type: cell-based; settings: Homo sapiens, NCI-60, 48 h, melanoma
# Excerpt: as §1
# UACC-62 = assay: NCI-60 cytotoxicity screen; assay type: cell-based; settings: Homo sapiens, NCI-60, 48 h, melanoma
# Excerpt: as §1
# MCF-7 = assay: NCI-60 cytotoxicity screen; assay type: cell-based; settings: Homo sapiens, MCF7; NCI-60, 48 h, breast
# Excerpt: as §1
# BT 549 = assay: NCI-60 cytotoxicity screen; assay type: cell-based; settings: Homo sapiens, NCI-60, 48 h, breast
# Excerpt: as §1
# HS 578 T = assay: NCI-60 cytotoxicity screen; assay type: cell-based; settings: Homo sapiens, NCI-60, 48 h, breast
# Excerpt: as §1
# HOP-62 = assay: NCI-60 cytotoxicity screen; assay type: cell-based; settings: Homo sapiens, NCI-60, 48 h, NSCLC
# Excerpt: as §1
# SK-MEL-28 = assay: NCI-60 cytotoxicity screen; assay type: cell-based; settings: Homo sapiens, NCI-60, 48 h, melanoma
# Excerpt: as §1
# IGROV-1 = assay: NCI-60 cytotoxicity screen; assay type: cell-based; settings: Homo sapiens, NCI-60, 48 h, ovarian
# Excerpt: as §1
# ACHN = assay: NCI-60 cytotoxicity screen; assay type: cell-based; settings: Homo sapiens, NCI-60, 48 h, renal
# Excerpt: as §1
# HL-60 = assay: NCI-60 cytotoxicity screen; assay type: cell-based; settings: Homo sapiens, NCI-60, 48 h, leukaemia
# Excerpt: as §1
# M14 = assay: NCI-60 cytotoxicity screen; assay type: cell-based; settings: Homo sapiens, NCI-60, 48 h, melanoma
# Excerpt: as §1
# COLO205 = assay: NCI-60 cytotoxicity screen; assay type: cell-based; settings: Homo sapiens, COLO 205; NCI-60, 48 h, colon
# Excerpt: as §1
# PC-3 = assay: NCI-60 cytotoxicity screen; assay type: cell-based; settings: Homo sapiens, NCI-60, 48 h, prostate
# Excerpt: as §1
# 786-0 = assay: NCI-60 cytotoxicity screen; assay type: cell-based; settings: Homo sapiens, NCI-60, 48 h, renal
# Excerpt: as §1
# SF-295 = assay: NCI-60 cytotoxicity screen; assay type: cell-based; settings: Homo sapiens, NCI-60, 48 h, CNS
# Excerpt: as §1
# SN12C = assay: NCI-60 cytotoxicity screen; assay type: cell-based; settings: Homo sapiens, NCI-60, 48 h, renal
# Excerpt: as §1
# OVCAR-3 = assay: NCI-60 cytotoxicity screen; assay type: cell-based; settings: Homo sapiens, NCI-60, 48 h, ovarian
# Excerpt: as §1
# A549 = assay: NCI-60 cytotoxicity screen; assay type: cell-based; settings: Homo sapiens, NCI-60, 48 h, NSCLC
# Excerpt: as §1
structure (smiles),measurement,setting,value
"C=C(CN1CCN(c2ccccn2)CC1)c1ccc(C(=O)Nc2ccccc2N)cc1 [Compound 6, N-(2-aminophenyl)-4–(3-(4-(pyridin-2-yl)piperazin-1-yl)prop-1-en-2-yl)benzamide]",IC50,T-47D,1230 nM
same,IC50,"HeLa nuclear KDACs; HeLa nuclear extract, up to 20 µM, read-out: HDAC Inhibition IC50",> 20000 nM
same,IC20,"HeLa nuclear KDACs; concentration inhibiting HDAC activity by 20%, read-out: HDAC Inhibition IC20",> 10000 nM
same,IC50,OVCAR-5,6100 nM
same,IC50,KM12,940 nM
same,IC50,OVCAR-8,1500 nM
same,IC50,EKVX,5330 nM
same,IC50,SK-MEL-2,1870 nM
same,IC50,RPMI-8226,1600 nM
same,IC50,HCT15,1910 nM
same,IC50,SNB-75,1480 nM
same,IC50,H460,2810 nM
same,IC50,SR,5330 nM
same,IC50,RXF 393,1550 nM
same,IC50,H23,940 nM
same,IC50,NCI/ADR-RES,1310 nM
same,IC50,H522,1560 nM
same,IC50,SF-539,1500 nM
same,IC50,MDA-MB-435,530 nM
same,IC50,DU-145,2520 nM
same,IC50,OVCAR-4,6350 nM
same,IC50,U251,1480 nM
same,IC50,LOX IMVI,930 nM
same,IC50,CAKI-1,1190 nM
same,IC50,SF-268,1660 nM
same,IC50,UO-31,1800 nM
same,IC50,SNB-19,4860 nM
same,IC50,SW620,1710 nM
same,IC50,SK-MEL-5,730 nM
same,IC50,UACC-62,1410 nM
same,IC50,MCF-7,3160 nM
same,IC50,BT 549,3940 nM
same,IC50,HS 578 T,1110 nM
same,IC50,HOP-62,1320 nM
same,IC50,SK-MEL-28,2520 nM
same,IC50,IGROV-1,1570 nM
same,IC50,ACHN,1500 nM
same,IC50,HL-60,2190 nM
same,IC50,M14,8470 nM
same,IC50,COLO205,1710 nM
same,IC50,PC-3,3780 nM
same,IC50,786-0,1210 nM
same,IC50,SF-295,1390 nM
same,IC50,SN12C,2360 nM
same,IC50,OVCAR-3,1240 nM
same,IC50,A549,2390 nM
